The numbers were not newly measured in PubChem BioAssay AID1259409 (Chemical Carcinogenesis Research Information System (CCRIS), 2018), which cites them from elsewhere.

The test system of this data set is rodent chemically induced tumor inhibition, incidence and multiplicity. The data set is described as follows: CCRIS tumor inhibitor studies. The conditions noted are these: Species: MOUSE.

On to `C/C(=C\c1ccc(C(=O)O)cc1)c1ccc2c(c1)SCCC2(C)C`, for which the “tumour outcome (control, treated, inhibition, significance)” value was 100%, 70%, 30%, not calculated (Carcinogen: 7,12-DIMETHYLBENZ[A]ANTHRACENE, 57-97-6, Dose [Inhibitor]: 1.7 NMOL IN 0.2 ML ACETONE 1 HR PRIOR TO EACH PROMOTER DOSE FOR 12 WK (STUDY DURATION: 14 WK), Route [Inhibitor]: DERMAL, Strain/Sex: SENCAR/FEMALE, Target Tissue: Type of Lesion: SKIN: PAPILLOMA, Dose [Carcinogen]: 200 NMOL IN 0.2 ML ACETONE ONCE, Promoter: 12-O-TETRADECANOYLPHORBOL-13-ACETATE, 16561-29-8); 94%, 67%, 29%, not calculated (Carcinogen: 7,12-DIMETHYLBENZ[A]ANTHRACENE, 57-97-6, Dose [Inhibitor]: 1.7 NMOL IN 0.2 ML ACETONE 1 HR PRIOR TO EACH PROMOTER DOSE FOR 20 WK (STUDY DURATION: 22 WK), Route [Inhibitor]: DERMAL, Strain/Sex: CD-1/FEMALE, Target Tissue: Type of Lesion: SKIN: PAPILLOMA, Dose [Carcinogen]: 200 NMOL IN 0.2 ML ACETONE ONCE, Promoter: 12-O-TETRADECANOYLPHORBOL-13-ACETATE, 16561-29-8); 100%, 72%, 28%, not calculated (Carcinogen: 7,12-DIMETHYLBENZ[A]ANTHRACENE, 57-97-6, Dose [Inhibitor]: 17 NMOL IN 0.2 ML ACETONE 1 HR PRIOR TO EACH PROMOTER DOSE FOR 12 WK (STUDY DURATION: 14 WK), Route [Inhibitor]: DERMAL, Strain/Sex: SENCAR/FEMALE, Target Tissue: Type of Lesion: SKIN: PAPILLOMA, Dose [Carcinogen]: 200 NMOL IN 0.2 ML ACETONE ONCE, Promoter: 12-O-TETRADECANOYLPHORBOL-13-ACETATE, 16561-29-8); 94%, 33%, 65%, not calculated (Carcinogen: 7,12-DIMETHYLBENZ[A]ANTHRACENE, 57-97-6, Dose [Inhibitor]: 17 NMOL IN 0.2 ML ACETONE 1 HR PRIOR TO EACH PROMOTER DOSE FOR 20 WK (STUDY DURATION: 22 WK), Route [Inhibitor]: DERMAL, Strain/Sex: CD-1/FEMALE, Target Tissue: Type of Lesion: SKIN: PAPILLOMA, Dose [Carcinogen]: 200 NMOL IN 0.2 ML ACETONE ONCE, Promoter: 12-O-TETRADECANOYLPHORBOL-13-ACETATE, 16561-29-8); 100%, 0%, 100%, not calculated (Carcinogen: 7,12-DIMETHYLBENZ[A]ANTHRACENE, 57-97-6, Dose [Inhibitor]: 170 NMOL IN 0.2 ML ACETONE 1 HR PRIOR TO EACH PROMOTER DOSE FOR 12 WK (STUDY DURATION: 14 WK), Route [Inhibitor]: DERMAL, Strain/Sex: SENCAR/FEMALE, Target Tissue: Type of Lesion: SKIN: PAPILLOMA, Dose [Carcinogen]: 200 NMOL IN 0.2 ML ACETONE ONCE, Promoter: 12-O-TETRADECANOYLPHORBOL-13-ACETATE, 16561-29-8); 94%, 0%, 100%, not calculated (Carcinogen: 7,12-DIMETHYLBENZ[A]ANTHRACENE, 57-97-6, Dose [Inhibitor]: 170 NMOL IN 0.2 ML ACETONE 1 HR PRIOR TO EACH PROMOTER DOSE FOR 20 WK (STUDY DURATION: 22 WK), Route [Inhibitor]: DERMAL, Strain/Sex: CD-1/FEMALE, Target Tissue: Type of Lesion: SKIN: PAPILLOMA, Dose [Carcinogen]: 200 NMOL IN 0.2 ML ACETONE ONCE, Promoter: 12-O-TETRADECANOYLPHORBOL-13-ACETATE, 16561-29-8).

For the molecule `O=C1OCc2ccccc21`, the “tumour outcome (control, treated, inhibition, significance)” value (Carcinogen: BENZO[A]PYRENE, 50-32-8, Dose [Inhibitor]: 0.034 MMOL/G IN DIET BEGINNING 1 WK PRIOR TO FIRST CARCINOGEN DOSE AND CONTINUING FOR 3 D POST LAST CARCINOGEN DOSE (STU, Route [Inhibitor]: ORAL, Strain/Sex: ICR/FEMALE, Target Tissue: Type of Lesion: FORESTOMACH: TUMOR, Dose [Carcinogen]: 1 MG IN 0.2 ML CORN OIL 2/WK FOR 4 WK, Promoter: NONE USED) was 95%, 95%, 0%, not significant.

Take `O=C(/C=C/c1ccc(O)cc1)c1ccc(O)cc1O`: the “tumour outcome (control, treated, inhibition, significance)” value runs as follows: (Carcinogen: 7,12-DIMETHYLBENZ[A]ANTHRACENE, 57-97-6, Dose [Inhibitor]: 0, 0.4 UMOL 2/WK FOR 18 WK BEGINNING 10 D POST CARCINOGEN DOSE (STUDY DURATION: 20 WK), Route [Inhibitor]: DERMAL, Strain/Sex: CD-1/FEMALE, Target Tissue: Type of Lesion: SKIN: PAPILLOMA, Dose [Carcinogen]: 200 NMOL ONCE, Promoter: 12-O-TETRADECANOYLPHORBOL-13-ACETATE, 16561-29-8) 85%, 90%, -6%, not significant; (Carcinogen: 7,12-DIMETHYLBENZ[A]ANTHRACENE, 57-97-6, Dose [Inhibitor]: 0, 10 UMOL 2/WK FOR 18 WK BEGINNING 10 D POST CARCINOGEN DOSE (STUDY DURATION: 20 WK), Route [Inhibitor]: DERMAL, Strain/Sex: CD-1/FEMALE, Target Tissue: Type of Lesion: SKIN: PAPILLOMA, Dose [Carcinogen]: 200 NMOL ONCE, Promoter: 12-O-TETRADECANOYLPHORBOL-13-ACETATE, 16561-29-8) 85%, 50%, 41%, p<0.05; (Carcinogen: 7,12-DIMETHYLBENZ[A]ANTHRACENE, 57-97-6, Dose [Inhibitor]: 0, 10 UMOL 2/WK FOR 21 WK BEGINNING 10 D POST CARCINOGEN DOSE (STUDY DURATION: 23 WK), Route [Inhibitor]: DERMAL, Strain/Sex: CD-1/FEMALE, Target Tissue: Type of Lesion: SKIN: PAPILLOMA, Dose [Carcinogen]: 200 NMOL ONCE, Promoter: 12-O-TETRADECANOYLPHORBOL-13-ACETATE, 16561-29-8) 90%, 0%, 100%, p<0.05; (Carcinogen: 7,12-DIMETHYLBENZ[A]ANTHRACENE, 57-97-6, Dose [Inhibitor]: 0, 15 UMOL 2/WK FOR 18 WK BEGINNING 10 D POST CARCINOGEN DOSE (STUDY DURATION: 20 WK), Route [Inhibitor]: DERMAL, Strain/Sex: CD-1/FEMALE, Target Tissue: Type of Lesion: SKIN: PAPILLOMA, Dose [Carcinogen]: 200 NMOL ONCE, Promoter: 12-O-TETRADECANOYLPHORBOL-13-ACETATE, 16561-29-8) 85%, 5%, 95%, p<0.05.
